The target of assay [1] is Induced myeloid leukemia cell differentiation protein Mcl-1 (Homo sapiens, UniProt Q07820). It is filed as functional.
Assay [2] addresses DNA (cytosine-5)-methyltransferase 1 (Homo sapiens, UniProt P26358). As to the kind of experiment: DNMT1 methyltransferase inhibitors, confirmation, biochemical, fluorescent molecular beacon (AID 602386). Format: functional.
In assay [3] the target is T1, Small ubiquitin-related modifier 1 (Homo sapiens, UniProt P63165). As to the kind of experiment: inhibitors of SUMO1 peptide binding, dose response, biochemical, fluorescence polarization, uHTS hits (AID 624382). It is filed as functional. The conditions noted are these: read-out: IC50_Mean. (In general: Fluorescence polarisation rises when a labelled molecule tumbles more slowly, as on binding a larger partner.)
T1 sequence (P63165 whole entry): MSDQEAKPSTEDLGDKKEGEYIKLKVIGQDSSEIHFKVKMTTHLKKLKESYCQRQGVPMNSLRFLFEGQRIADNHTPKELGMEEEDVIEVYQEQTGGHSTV

Assay [4] addresses T1, Small ubiquitin-related modifier 1. As to the kind of experiment: inhibitors of SUMO1 partner interactions, dose response, biochemical, FRET (AID 624383). Format: functional. The conditions noted are these: read-out: IC50_Mean.
The target in another assay is NS3 (Hepatitis C virus, UniProt A3EZJ3). Nature of the assay: PubChem AID 2173. More on the design: species or system Hepacivirus hominis.
NS3, sequence (A3EZJ3 whole entry): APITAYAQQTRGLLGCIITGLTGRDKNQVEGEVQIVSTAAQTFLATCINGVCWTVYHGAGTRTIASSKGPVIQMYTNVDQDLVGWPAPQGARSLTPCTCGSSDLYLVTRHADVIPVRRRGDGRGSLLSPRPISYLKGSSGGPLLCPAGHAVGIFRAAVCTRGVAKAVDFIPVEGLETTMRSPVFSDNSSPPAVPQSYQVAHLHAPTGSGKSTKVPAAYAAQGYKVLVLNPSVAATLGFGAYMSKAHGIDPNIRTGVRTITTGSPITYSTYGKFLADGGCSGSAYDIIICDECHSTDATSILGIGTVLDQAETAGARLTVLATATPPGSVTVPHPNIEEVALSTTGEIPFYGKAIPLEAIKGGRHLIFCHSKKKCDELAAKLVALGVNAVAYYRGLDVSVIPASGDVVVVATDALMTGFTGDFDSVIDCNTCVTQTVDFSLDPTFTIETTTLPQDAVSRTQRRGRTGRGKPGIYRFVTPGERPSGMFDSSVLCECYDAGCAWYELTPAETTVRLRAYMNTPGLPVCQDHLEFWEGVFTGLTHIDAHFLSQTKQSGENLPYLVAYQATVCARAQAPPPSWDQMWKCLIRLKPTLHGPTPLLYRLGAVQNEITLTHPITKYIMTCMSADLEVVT
The target of the next assay is Albumin (Bos taurus, UniProt P02769). Nature of the assay: Counterscreen for inhibitors of T-cell receptor (TCR)-CD3 interaction: Fluorescence-based biochemical high throughput dose response assay to identify inhibitors of T-cell receptor (TCR)-CD3 interaction using a TAMRA-labeled BSA probe. Format: functional.
Albumin, sequence (P02769 whole entry): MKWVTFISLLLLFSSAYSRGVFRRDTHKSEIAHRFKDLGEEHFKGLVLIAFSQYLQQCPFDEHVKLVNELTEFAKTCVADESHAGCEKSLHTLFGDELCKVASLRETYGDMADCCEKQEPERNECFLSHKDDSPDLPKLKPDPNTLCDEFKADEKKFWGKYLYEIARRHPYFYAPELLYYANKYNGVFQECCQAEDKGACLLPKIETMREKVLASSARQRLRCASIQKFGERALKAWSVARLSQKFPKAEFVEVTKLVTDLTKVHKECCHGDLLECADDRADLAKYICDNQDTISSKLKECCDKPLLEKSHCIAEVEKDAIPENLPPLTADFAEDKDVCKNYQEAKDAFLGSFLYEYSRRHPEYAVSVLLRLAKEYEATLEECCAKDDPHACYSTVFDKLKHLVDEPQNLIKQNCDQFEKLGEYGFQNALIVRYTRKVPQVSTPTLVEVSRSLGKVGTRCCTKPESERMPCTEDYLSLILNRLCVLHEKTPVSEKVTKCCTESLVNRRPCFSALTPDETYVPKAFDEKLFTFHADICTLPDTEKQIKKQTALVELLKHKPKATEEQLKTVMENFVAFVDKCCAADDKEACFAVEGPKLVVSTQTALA
In the next assay the target is T2, Hexokinase HKDC1 (Homo sapiens, UniProt Q2TB90).
T2 sequence (Q2TB90 whole entry): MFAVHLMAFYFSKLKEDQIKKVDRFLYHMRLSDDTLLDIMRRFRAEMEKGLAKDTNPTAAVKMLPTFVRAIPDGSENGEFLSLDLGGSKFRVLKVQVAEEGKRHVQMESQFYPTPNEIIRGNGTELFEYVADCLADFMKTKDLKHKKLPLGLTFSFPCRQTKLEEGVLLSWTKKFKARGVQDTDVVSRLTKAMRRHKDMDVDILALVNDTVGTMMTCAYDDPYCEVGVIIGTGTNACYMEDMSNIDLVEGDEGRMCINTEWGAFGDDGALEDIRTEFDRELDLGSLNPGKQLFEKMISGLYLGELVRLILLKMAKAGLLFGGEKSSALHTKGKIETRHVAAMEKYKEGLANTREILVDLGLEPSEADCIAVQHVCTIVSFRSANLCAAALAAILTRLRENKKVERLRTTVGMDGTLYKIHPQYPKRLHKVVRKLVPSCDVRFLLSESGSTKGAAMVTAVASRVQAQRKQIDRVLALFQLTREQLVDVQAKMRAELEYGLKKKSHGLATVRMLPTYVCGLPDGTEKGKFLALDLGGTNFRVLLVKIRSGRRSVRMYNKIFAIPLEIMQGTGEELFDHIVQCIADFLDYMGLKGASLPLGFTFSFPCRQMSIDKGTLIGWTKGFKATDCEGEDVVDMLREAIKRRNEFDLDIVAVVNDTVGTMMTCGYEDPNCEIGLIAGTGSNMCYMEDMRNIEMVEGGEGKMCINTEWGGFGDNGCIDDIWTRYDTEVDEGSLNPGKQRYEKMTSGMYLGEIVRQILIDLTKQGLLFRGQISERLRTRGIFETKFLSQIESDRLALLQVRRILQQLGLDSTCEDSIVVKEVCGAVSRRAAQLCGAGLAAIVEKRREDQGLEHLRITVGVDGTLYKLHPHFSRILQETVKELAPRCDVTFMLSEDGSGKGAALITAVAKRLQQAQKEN
Nature of the assay: HKDC1 hexokinase inhibitors, dose response, biochemical, W721R variant (AID 504729). Format: functional.

We go through 2 compounds from ChEMBL document CHEMBL1201862, “PubChem BioAssay data set” (2004).

Active and inactive are the calls of the source. Where only a bound is given, the exact number is not on record here.

DNA (cytosine-5)-methyltransferase 1, sequence (P26358 whole entry): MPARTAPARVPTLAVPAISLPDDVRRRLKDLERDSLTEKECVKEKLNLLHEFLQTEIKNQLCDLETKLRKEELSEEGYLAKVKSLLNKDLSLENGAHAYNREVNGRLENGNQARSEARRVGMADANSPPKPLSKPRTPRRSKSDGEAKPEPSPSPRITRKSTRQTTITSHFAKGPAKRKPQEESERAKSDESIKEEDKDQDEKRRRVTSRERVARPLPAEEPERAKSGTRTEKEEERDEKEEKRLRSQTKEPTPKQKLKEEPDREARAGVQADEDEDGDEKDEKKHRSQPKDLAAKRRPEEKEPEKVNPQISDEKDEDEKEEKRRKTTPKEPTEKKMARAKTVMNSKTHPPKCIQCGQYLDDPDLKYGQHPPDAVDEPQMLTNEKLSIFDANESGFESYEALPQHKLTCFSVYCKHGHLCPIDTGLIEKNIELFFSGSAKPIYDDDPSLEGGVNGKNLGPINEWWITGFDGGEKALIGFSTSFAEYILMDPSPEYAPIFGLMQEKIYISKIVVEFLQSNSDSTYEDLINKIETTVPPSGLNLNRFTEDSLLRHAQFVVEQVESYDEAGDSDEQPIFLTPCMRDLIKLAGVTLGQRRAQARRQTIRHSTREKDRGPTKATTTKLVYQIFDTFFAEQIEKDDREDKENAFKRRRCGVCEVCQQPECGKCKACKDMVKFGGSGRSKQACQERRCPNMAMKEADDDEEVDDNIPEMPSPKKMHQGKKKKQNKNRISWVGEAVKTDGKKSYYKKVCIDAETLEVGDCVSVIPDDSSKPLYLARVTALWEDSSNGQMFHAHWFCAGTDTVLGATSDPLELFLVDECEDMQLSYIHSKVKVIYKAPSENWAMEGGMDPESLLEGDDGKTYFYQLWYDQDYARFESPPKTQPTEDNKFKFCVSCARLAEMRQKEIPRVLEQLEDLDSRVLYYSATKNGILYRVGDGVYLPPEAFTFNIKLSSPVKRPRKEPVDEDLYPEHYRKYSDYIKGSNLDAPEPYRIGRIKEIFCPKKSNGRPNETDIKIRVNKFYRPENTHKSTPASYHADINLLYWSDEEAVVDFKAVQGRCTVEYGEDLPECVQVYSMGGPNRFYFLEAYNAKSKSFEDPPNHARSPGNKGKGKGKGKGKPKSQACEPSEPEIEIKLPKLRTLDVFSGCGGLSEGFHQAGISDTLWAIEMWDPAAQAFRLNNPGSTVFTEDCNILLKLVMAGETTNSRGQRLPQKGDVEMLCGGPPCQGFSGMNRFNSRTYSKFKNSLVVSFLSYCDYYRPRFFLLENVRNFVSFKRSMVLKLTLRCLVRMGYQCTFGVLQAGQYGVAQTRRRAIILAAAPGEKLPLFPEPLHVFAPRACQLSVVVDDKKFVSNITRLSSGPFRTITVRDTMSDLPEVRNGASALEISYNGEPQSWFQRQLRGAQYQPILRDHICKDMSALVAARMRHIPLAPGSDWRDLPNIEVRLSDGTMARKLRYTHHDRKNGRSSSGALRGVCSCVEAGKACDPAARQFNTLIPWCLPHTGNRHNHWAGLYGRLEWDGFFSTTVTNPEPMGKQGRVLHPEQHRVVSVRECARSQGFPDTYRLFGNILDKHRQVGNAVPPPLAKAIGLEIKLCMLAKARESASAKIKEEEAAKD
Induced myeloid leukemia cell differentiation protein Mcl-1, sequence (Q07820 whole entry): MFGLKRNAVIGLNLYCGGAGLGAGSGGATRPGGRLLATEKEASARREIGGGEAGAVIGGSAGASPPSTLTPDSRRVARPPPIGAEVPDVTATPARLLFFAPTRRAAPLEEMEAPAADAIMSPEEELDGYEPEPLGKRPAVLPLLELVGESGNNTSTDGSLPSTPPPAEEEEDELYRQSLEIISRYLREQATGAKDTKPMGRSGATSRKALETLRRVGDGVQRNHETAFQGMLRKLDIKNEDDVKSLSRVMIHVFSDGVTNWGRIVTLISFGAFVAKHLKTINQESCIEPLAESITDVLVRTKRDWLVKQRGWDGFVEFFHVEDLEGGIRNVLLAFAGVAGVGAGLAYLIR

For `O=C(O)c1ccccc1/C=N/NC(=O)c1cc(-c2ccco2)nc2ccccc12`, the IC50 in assay [1] is 2.54 µM (active); in assay [2], 5.4 µM (active); in assay [3], > 66.6 µM (inactive); in assay [4], 9.51 µM (active); at NS3 it was 7.35 µM (active); at Albumin, > 94.1 µM (inactive).

As to `O=C(CSc1nnc(CCCN2C(=O)c3cccc4cccc(c34)C2=O)n1-c1ccccc1)N1CCN(CCO)CC1`, at Hexokinase HKDC1, the IC50 was 9.27 µM (active).
